{
  "source": "paper PMC10281575",
  "about": "“PfCRT mutations conferring piperaquine resistance in falciparum malaria shape the kinetics of quinoline drug binding and transport” (PLOS Pathogens, 2023)",
  "molecular_target": "T1, PfCRT^Dd2_F145I (Plasmodium falciparum, UniProt Q8IBZ9, A220S/F145I/I356T/K76T/M74I/N326S/N75E/Q271E/R371I)",
  "T1 construct": "expressed in transfected cells; host or cells: Xenopus laevis oocytes injected with in vitro transcribed RNA (pSP64T)",
  "T1 sequence (Q8IBZ9 1-424 M74I/N75E/K76T/F145I/A220S/Q271E/N326S/I356T/R371I)": "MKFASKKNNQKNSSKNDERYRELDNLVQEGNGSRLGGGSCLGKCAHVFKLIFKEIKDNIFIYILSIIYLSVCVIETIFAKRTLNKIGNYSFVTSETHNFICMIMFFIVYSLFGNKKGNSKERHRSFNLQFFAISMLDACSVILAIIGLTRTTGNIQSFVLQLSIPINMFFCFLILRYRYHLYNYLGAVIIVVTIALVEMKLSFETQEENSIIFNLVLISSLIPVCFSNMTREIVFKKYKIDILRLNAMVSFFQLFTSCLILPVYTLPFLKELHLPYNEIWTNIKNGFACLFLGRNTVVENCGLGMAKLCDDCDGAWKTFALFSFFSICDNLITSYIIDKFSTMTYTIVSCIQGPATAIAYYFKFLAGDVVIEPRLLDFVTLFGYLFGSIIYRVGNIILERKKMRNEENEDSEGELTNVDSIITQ",
  "test": "Competition kinetics of drug transport (radiolabeled substrate plus cold inhibitor), PfCRT^Dd2_F145I-expressing oocytes",
  "format": "cell-based",
  "details": "for Vmax, maximal velocity of drug transport: global fit; for β, partiality factor: factor on transport of the labeled drug by the other drug",
  "protocol": "To further characterize the kinetic relationship between CQ and PPQ, we performed a series of competition reactions. To this end, water-injected oocytes and PfCRT-expressing oocytes were incubated in medium containing one of seven concentrations of radio-labeled CQ and one of six concentrations of cold PPQ for 60 min before the amount of radio-labeled CQ uptake was determined. The rate of PfCRT-mediated CQ uptake was calculated for each condition by subtracting the corresponding value obtained for water-injected oocytes from those of PfCRT-expressing oocytes. The results were analyzed as a function of the CQ concentration (Fig 4A) and 16 different models of substrate competition were globally fit to the data by the least-squares method, using Python. The models were ranked, according to their Akaike information criterion difference (ΔAICC) and their Akaike weight (Fig 4B), with the most plausible model being the one with the lowest AICC (ΔAICC = 0) and the highest Akaike weight.\nA complementary set of experiments was undertaken to investigate the kinetic mechanism by which PfCRT^Dd2_F145I accepts CQ and PPQ (Fig 6). […] These included a global fit of the substrate competition data to the 16 kinetic models (Fig 6), analysis of the secondary plots (Vmax,app and Vmax,app/KM,app as a function of the inhibitor concentration) (Fig 7A), a fractional velocity plot analysis (Fig 7B) and a comparison of the experimental data with the modelled data using the noncompetitive inhibition equation (Fig 7C to 7F). […] The fractional velocity plot illustrated the partial character of the noncompetitive inhibition mechanism by yielding a partiality factor β^CQ = 0.31 ± 0.04, by which PPQ reduces the transport velocity of CQ (Fig 7B). […] A 3D model of the kinetics between PfCRT^Dd2_F145I, CQ and PPQ, and analyses of the residuals as a function of substrate and inhibitor concentrations confirmed that the model was also an appropriate explanation for the mutant transporter (Fig 7C to 7F).\nDrug transport assays were performed as previously described. Briefly, measurements of radiolabeled drug uptake were made over 1 h, unless otherwise specified. […] Where specified, one or more unlabeled drugs were also present at the indicated concentrations. The direction of drug transport in the assays is from the extracellular medium (pH 6) into the oocyte cytosol (pH 7.2), which corresponds to the efflux of CQ or PPQ from the acidic digestive vacuole (pH 5.2) into the parasite cytosol (pH 7.2). The uptake assays were terminated by removing the oocytes from the reaction medium and washing them three times with 2 mL of ice-cold ND96 buffer. Each oocyte was transferred to a separate scintillation vial and lysed by the addition of 200 μL of a 5% SDS solution. The radioactivity in the sample was measured using a liquid scintillation analyser Tri-Carb 4910 TR (PerkinElmer). Water-injected oocytes were analyzed in parallel as a negative control. The buffer from each condition was measured in duplicate in parallel to each experiment to transform counts per minute into pmol of drug. Drug uptake attributable to PfCRT was determined by subtracting the background uptake from water-injected oocytes from that of PfCRT-expressing oocytes. In all cases, at least three independent experiments were performed on oocytes from different frogs, and for each condition in an experiment, measurements were made from 10 oocytes per treatment.\nThe following equations were adopted from Segel (1993), and the reader is referred to that text for the assumptions made in the author’s approach in the derivation of each equation [31]. The concentration of substrate is denoted as [S1] and the concentration of the inhibiting substrate is denoted as [S2]. KS1 and KS2 are the dissociation constants for the respective substrate-protein complexes.\nAnalyses of the kinetic data were performed using SigmaPlot version 13.0 and Python. […]",
  "note": "Values joined by “and” are separate entries in the source; they are usually repeats but may differ in a detail not shown here. Equal values may be shown once. Read-outs that look alike come from different tables or passages of the source.",
  "data": [
    {"smiles": "Clc1ccc2c(N3CCN(CCCN4CCN(c5ccnc6cc(Cl)ccc56)CC4)CC3)ccnc2c1", "note": "[PPQ, piperaquine]", "values": [
      {"measurement": "PfCRTDd2_F145I-mediated PPQ transport", "setting": "500 µM PPQ, 400 µM CQ", "value": "83.51 pmol oocyte-1 h-1 and 92.59 pmol oocyte-1 h-1"},
      {"measurement": "v / (Vmax - v)", "setting": "1/[PPQ] 0.002000 µM-1", "value": 0.4488},
      {"measurement": "v / (Vmax - v)", "setting": "1/[PPQ] 0.002857 µM-1", "value": 0.4948},
      {"measurement": "v / (Vmax - v)", "setting": "1/[PPQ] 0.005000 µM-1", "value": 0.5591},
      {"measurement": "v / (Vmax - v)", "setting": "1/[PPQ] 0.008000 µM-1", "value": 0.7269},
      {"measurement": "v / (Vmax - v)", "setting": "1/[PPQ] 0.020000 µM-1", "value": 0.8760},
      {"measurement": "most plausible inhibition model", "setting": "16 models, ΔAICC, Akaike weight, secondary plots", "value": "partial noncompetitive inhibition"},
      {"measurement": "Vmax, maximal velocity of drug transport", "setting": "Mixed (Partial) model, drug as radiolabeled substrate", "value": "150 ± 5", "unit": "pmol oocyte^-1 h^-1"},
      {"measurement": "Kd", "setting": "Mixed (Partial) model, drug as cold inhibitor, read-out: KS, dissociation constant for the PfCRT-substrate complex", "value": "160 ± 40", "unit": "µM"},
      {"measurement": "Kd", "setting": "Mixed (Partial) model, drug as radiolabeled substrate, read-out: KS, dissociation constant for the PfCRT-substrate complex", "value": "128 ± 11", "unit": "µM"},
      {"measurement": "β, partiality factor", "setting": "Mixed (Partial) model", "value": "0.64 ± 0.09"},
      {"measurement": "α, KS interaction factor", "setting": "Mixed (Partial) model, label = radiolabeled substrate, other drug cold inhibitor", "value": "1.2 ± 0.3"},
      {"measurement": "Vmax, maximal velocity of drug transport", "setting": "Noncompetitive (Partial) model, drug as radiolabeled substrate, other drug as cold inhibitor", "value": "152 pmol oocyte^-1 h^-1 and 152 ± 4 pmol oocyte^-1 h^-1"},
      {"measurement": "Kd", "setting": "Noncompetitive (Partial) model, drug as cold inhibitor, read-out: KS, dissociation constant for the PfCRT-substrate complex", "value": "167 µM and 170 µM"},
      {"measurement": "Kd", "setting": "Noncompetitive (Partial) model, drug as radiolabeled substrate, read-out: KS, dissociation constant for the PfCRT-substrate complex", "value": "134 ± 8", "unit": "µM"},
      {"measurement": "β, partiality factor", "setting": "Noncompetitive (Partial) model", "value": "0.61 and 0.61 ± 0.07"},
      {"measurement": "KMapp ([3H]PPQ + CQ)", "setting": "[CQ] 0 µM", "value": 124.39, "unit": "µM"},
      {"measurement": "Vmaxapp ([3H]PPQ + CQ)", "setting": "[CQ] 0 µM", "value": 148.37, "unit": "pmol oocyte-1 h-1"},
      {"measurement": "Vmaxapp/KMapp ([3H]PPQ + CQ)", "setting": "[CQ] 0 µM", "value": 1.1929, "unit": "h⁻¹"},
      {"measurement": "KMapp ([3H]PPQ + CQ)", "setting": "[CQ] 25 µM", "value": 139.84, "unit": "µM"},
      {"measurement": "Vmaxapp ([3H]PPQ + CQ)", "setting": "[CQ] 25 µM", "value": 149.64, "unit": "pmol oocyte-1 h-1"},
      {"measurement": "Vmaxapp/KMapp ([3H]PPQ + CQ)", "setting": "[CQ] 25 µM", "value": 1.0701, "unit": "h⁻¹"},
      {"measurement": "KMapp ([3H]PPQ + CQ)", "setting": "[CQ] 50 µM", "value": 130.94, "unit": "µM"},
      {"measurement": "Vmaxapp ([3H]PPQ + CQ)", "setting": "[CQ] 50 µM", "value": 139.65, "unit": "pmol oocyte-1 h-1"},
      {"measurement": "Vmaxapp/KMapp ([3H]PPQ + CQ)", "setting": "[CQ] 50 µM", "value": 1.0665, "unit": "h⁻¹"},
      {"measurement": "KMapp ([3H]PPQ + CQ)", "setting": "[CQ] 125 µM", "value": 131.31, "unit": "µM"},
      {"measurement": "Vmaxapp ([3H]PPQ + CQ)", "setting": "[CQ] 125 µM", "value": 130.07, "unit": "pmol oocyte-1 h-1"},
      {"measurement": "Vmaxapp/KMapp ([3H]PPQ + CQ)", "setting": "[CQ] 125 µM", "value": 0.9905, "unit": "h⁻¹"},
      {"measurement": "KMapp ([3H]PPQ + CQ)", "setting": "[CQ] 200 µM", "value": 138.10, "unit": "µM"},
      {"measurement": "Vmaxapp ([3H]PPQ + CQ)", "setting": "[CQ] 200 µM", "value": 125.38, "unit": "pmol oocyte-1 h-1"},
      {"measurement": "Vmaxapp/KMapp ([3H]PPQ + CQ)", "setting": "[CQ] 200 µM", "value": 0.9079, "unit": "h⁻¹"},
      {"measurement": "KMapp ([3H]PPQ + CQ)", "setting": "[CQ] 400 µM", "value": 147.48, "unit": "µM"},
      {"measurement": "Vmaxapp ([3H]PPQ + CQ)", "setting": "[CQ] 400 µM", "value": 117.65, "unit": "pmol oocyte-1 h-1"},
      {"measurement": "Vmaxapp/KMapp ([3H]PPQ + CQ)", "setting": "[CQ] 400 µM", "value": 0.7978, "unit": "h⁻¹"},
      {"measurement": "Kd", "setting": "secondary plot, half-maximal inhibitory concentration of Vmax,app versus inhibitor concentration, read-out: αKS, dissociation constant between the drug and the PfCRT complex with the other drug", "value": "170 ± 30", "unit": "µM"},
      {"measurement": "Kd", "setting": "secondary plot, half-maximal inhibitory concentration of Vmax,app/KM,app versus inhibitor concentration, read-out: KS, dissociation constant between the drug and PfCRT", "value": "170 ± 50", "unit": "µM"},
      {"measurement": "α (αKS divided by KS)", "setting": "secondary plots, label = prebound drug", "value": "0.8 ± 0.7"}
    ]}
  ]
}
